Experimental data from US12594261B2, “Use of heterocyclic derivatives with cardiomyocyte proliferation activity for treatment of heart diseases” (SHANGHAI EAST HOSPITAL (EAST HOSPITAL, TONGJI UNIVERSITY …, priority 2019, dated 2026).

System: neonatal rat ventricular myocytes (NRVMs)
Assay: Myocyte proliferation assay (EdU) in neonatal rat ventricular myocytes
Assay type: cell-based
Conditions: Rattus norvegicus, Ventricular myocyte, growth relative to blank myocyte growth without compound added; for activation at 1 µM: 1 uM compound; for activation at 3 µM: 3 uM compound; for activation at 10 µM: 10 uM compound
Description: 1. Isolation of and Culture Neonatal Rat Ventricular Myocytes (NRVMs)
Ventricles from neonatal rats were separated from the atria, cut into small pieces (about 2×2 mm^2) and then dissociated in Ca^2+-free HBSS containing 0.125 mg ml-1 trypsin (Gibco), 10 μg ml-1 DNase II (Sigma) and 0.1 mg ml-1 collagenase type IV (Sigma). The digestion was carried out under constant stirring at 37° C. for 5 min. The supernatant was collected with FBS (Gibco) after each digestion period. After digestion, the collected supernatant was centrifuged at 1000 g for 10 min at room temperature, and then cell pellets were resuspended in DMEM (Gibco) supplemented with 10% FBS and with 100 uM 5-bromo-2′-deoxyuridine (Sigma). The resuspended cells were passed through a cell strainer ([…], BD Falcon) and seeded onto 100-mm plastic dishes for 2 h at 37° C. in a 5% CO2 to remove fibroblasts, the supernatant was then collected and plated onto 1% gelatin (Sigma)-coated dishes. 24 h after the seeding, the medium was changed to DMEM (Gibco) containing 2% FBS (Gibco), 1% insulin-transferrin-selenium (ITS; Gibco), 1% Penicillin-Streptomycin (Gibco). After 24 hours of low serum culture, remove the medium with DMEM (Gibco) containing 6% FBS (Gibco), 1% insulin-transferrin-selenium (ITS; Gibco), 1% Penicillin-Streptomycin (Gibco), different concentrations of compounds (the compounds were pre-diluted in the medium and the drug concentration was 10 uM, 3 uM, 1 uM, fully mixed). After 36 h add Edu substrate (Invitrogen) according to the manufacturer's guidelines, and then after 12 h cell can be used.
2.1. Immobilization: Remove the medium and fix the cells with […] in 200 ul (whichever is covered) for 15 min and wash the cells twice with 500 ul of PBS for 5 min each time.
2.2. Broken membrane: Add 200 ul of 0.3% Triton-X 100 (diluted in PBS) to each well, incubate for 10-15 min at room temperature (the time should not be too long), and wash the cells twice with 500 ul of PBS for 5 min each time.
2.3. Blocking: Add 200 ul of 10% normal goat serum (diluted with 0.1% PBST) to each well, incubate for 1 h at room temperature, and wash twice with 500 ul of 0.1% PBST for 5 min each time.
2.4. Primary antibody: dilute the primary antibody (abcam, ab8295) to blocking solution at a ratio of 1:200, add 100 ul per well, incubate for 1 h at room temperature (may be slightly longer than 2-3 h), wash the cells twice with 500 ul 0.1% PBST for 5 min each time.
2.5. Secondary antibody: Dilute the fluorescently labeled secondary antibody (abcam, ab150117) into blocking solution at a ratio of 1:200, add 100 ul per well, incubate for 1 h at room temperature (the time should not be too long), wash the cells twice with 0.1% PBST for 5 min each time, pay attention to the whole process. Protected from light.
2.6. Edu staining (Invitrogen C10338)
2.6.1 Prepare Click-iT® reaction cocktail according to Table 3. It was important to add the ingredients in the order listed in the table; otherwise, the reaction would not proceed optimally. Use the Click-iT® reaction cocktail within 15 minutes of preparation.
2.6.2 Add 0.1 mL of Click-iT® reaction cocktail to each well containing a coverslip. Rock the plate briefly to ensure that the reaction cocktail is distributed evenly over the coverslip.
2.6.3 Incubate the plate for 30 minutes at room temperature, protected from light.
2.6.4 Remove the reaction cocktail, then wash the cells twice with 0.1% PBST for 5 min each time.
2.7. DAPI staining: DAPI stain was diluted to PBS at a ratio of 1:1000, 100 ul per well, incubated for 30 min at room temperature, and the cells were washed twice with PBS for 5 min each.
We used Molecular Devices' Image Xpress Micro Confocal for high-throughput photo and data analysis.

| SMILES | activation at 1 µM | activation at 3 µM | activation at 10 µM |
| --- | --- | --- | --- |
| O=C1NC(NCCN2CCOCC2)=N/C1=C\c1ccc2c(c1)OCCO2 [TJU-B026, (4Z)-4-[(2,3-dihydro-1,4-benzodioxin-6-yl)methylidene]-2-{[2-(morpholin-4-yl)ethyl]amino}-4,5-dihydro-1H-imidazol-5-one] | 10 to 50% | < 10% | > 50% |
| O=C1NC(c2ccccc2)=N/C1=C\c1ccc2c(c1)OCO2 [TJU-B039, (4Z)-4-[(2H-1,3-benzodioxol-5-yl)methylidene]-2-phenyl-4,5-dihydro-1H-imidazol-5-one] | < 10% |  | 10 to 50% |
| CN1C(=O)/C(=C/c2ccc3c(c2)OCO3)N=C1Nc1ccc2c(c1)OCO2 [TJU-B088, (4Z)-2-[(2H-1,3-benzodioxol-5-yl)amino]-4-[(2H-1,3-benzodioxol-5-yl)methylidene]-1-methyl-4,5-dihydro-1H-imidazol-5-one] | 10 to 50% | < 10% | < 10% |
| CN1C(=O)/C(=C/c2ccc(F)cc2)N=C1N [TJU-B050, (4Z)-2-amino-4-[(4-fluorophenyl)methylidene]-1-methyl-4,5-dihydro-1H-imidazol-5-one] | < 10% | < 10% | 10 to 50% |
| O=C1NC(NCc2ccccc2)=N/C1=C\c1ccc2c(c1)OCO2 [TJU-B019, (4Z)-4-[(2H-1,3-benzodioxol-5-yl)methylidene]-2-(benzylamino)-4,5-dihydro-1H-imidazol-5-one] | < 10% | < 10% | > 50% |
| COc1cc(/C=C2\N=C(N)NC2=O)cc2c1OCO2 [TJU-B065, (4Z)-2-amino-4-[(7-methoxy-2H-1,3-benzodioxol-5-yl)methylidene]-4,5-dihydro-1H-imidazol-5-one] | < 10% | < 10% | < 10% |
| CC(C)NC1=N/C(=C\c2ccc3c(c2)OCO3)C(=O)N1 [TJU-B038, (4Z)-4-[(2H-1,3-benzodioxol-5-yl)methylidene]-2-[(propan-2-yl)amino]-4,5-dihydro-1H-imidazol-5-one] | 10 to 50% | 10 to 50% | 10 to 50% |
| COc1cc(/C=C2\N=C(Nc3ccccc3)NC2=O)cc2c1OCO2 [TJU-B051, (4Z)-4-[(7-methoxy-2H-1,3-benzodioxol-5-yl)methylidene]-2-(phenylamino)-4,5-dihydro-1H-imidazol-5-one] | < 10% | < 10% | 10 to 50% |
| O=C1NC(Nc2ccc(Cl)cc2)=N/C1=C\c1ccc2c(c1)OCO2 [TJU-B060, (4Z)-4-[(2H-1,3-benzodioxol-5-yl)methylidene]-2-[(4-chlorophenyl)amino]-4,5-dihydro-1H-imidazol-5-one] | < 10% | < 10% | < 10% |
| O=C1NC(c2ccccc2)=N/C1=C\c1ccc2c(c1)OC(F)(F)O2 [TJU-B063, (4Z)-4-[(2,2-difluoro-2H-1,3-benzodioxol-5-yl)methylidene]-2-phenyl-4,5-dihydro-1H-imidazol-5-one] | < 10% | > 50% | < 10% |
| CN1C(=O)/C(=C/c2ccccc2)N=C1N [TJU-B045, (4Z)-2-amino-1-methyl-4-(phenylmethylidene)-4,5-dihydro-1H-imidazol-5-one] | < 10% | < 10% | 10 to 50% |
| O=C1NC(Nc2cccnc2)=N/C1=C\c1ccc2c(c1)OCO2 [TJU-B031, (4Z)-4-[(2H-1,3-benzodioxol-5-yl)methylidene]-2-[(pyridin-3-yl)amino]-4,5-dihydro-1H-imidazol-5-one] | < 10% | < 10% | 10 to 50% |
| O=C1NC(NCC2CC2)=N/C1=C\c1ccc2c(c1)OCO2 [TJU-B029, (4Z)-4-[(2H-1,3-benzodioxol-5-yl)methylidene]-2-[(cyclopropylmethyl)amino]-4,5-dihydro-1H-imidazol-5-one] | < 10% | < 10% | 10 to 50% |
| O=C1NC(Nc2ccccc2)=N/C1=C\c1ccc2c(c1)OCO2 [TJU-B043, (4Z)-4-[(2H-1,3-benzodioxol-5-yl)methylidene]-2-(phenylamino)-4,5-dihydro-1H-imidazol-5-one] | 10 to 50% | 10 to 50% | 10 to 50% |
| CN1C(=O)/C(=C/c2ccc3c(c2)OCO3)N=C1Nc1ccccc1 [TJU-B014, (4Z)-4-[(2H-1,3-benzodioxol-5-yl)methylidene]-1-methyl-2-(phenylamino)-4,5-dihydro-1H-imidazol-5-one] | < 10% | 10 to 50% | > 50% |
| O=C1NC(NCCN2CCOCC2)=N/C1=C\c1ccc2c(c1)OC(F)(F)O2 [TJU-B066, (4Z)-4-[(2,2-difluoro-2H-1,3-benzodioxol-5-yl)methylidene]-2-{[2-(morpholin-4-yl)ethyl]amino}-4,5-dihydro-1H-imidazol-5-one] | 10 to 50% | < 10% | < 10% |
| CN1C(=O)/C(=C/c2ccccc2F)N=C1N [TJU-B067, (4Z)-2-amino-4-[(2-fluorophenyl)methylidene]-1-methyl-4,5-dihydro-1H-imidazol-5-one] | < 10% | < 10% | < 10% |
| N#Cc1ccc(NC2=N/C(=C\c3ccc4c(c3)OCO4)C(=O)N2)cc1 [TJU-B058, 4-{[(4Z)-4-[(2H-1,3-benzodioxol-5-yl)methylidene]-5-oxo-4,5-dihydro-1H-imidazol-2-yl]amino} benzonitrile] | 10 to 50% | < 10% | < 10% |
| O=C1NC(NC2CCCCC2)=N/C1=C\c1ccc2c(c1)OCO2 [TJU-B253, (4Z)-4-[(2H-1,3-benzodioxol-5-yl)methylidene]-2-(cyclohexylamino)-4,5-dihydro-1H-imidazol-5-one] | < 10% | < 10% | < 10% |
| CCNC1=N/C(=C\c2ccc3c(c2)OCO3)C(=O)N1 [TJU-B040, (4Z)-4-[(2H-1,3-benzodioxol-5-yl)methylidene]-2-(ethylamino)-4,5-dihydro-1H-imidazol-5-one] | 10 to 50% | 10 to 50% | 10 to 50% |
| O=C1NC(Nc2ccccc2)=NC1Cc1ccc2c(c1)OCO2 (centres unmarked) [TJU-B005, 4-[(2H-1,3-benzodioxol-5-yl)methyl]-2-(phenylamino)-4,5-dihydro-1H-imidazol-5-one] | 10 to 50% | < 10% | > 50% |
| Nc1ccc(NC2=N/C(=C\c3ccc4c(c3)OCO4)C(=O)N2)cc1 [TJU-B021, (4Z)-2-[(4-aminophenyl)amino]-4-[(2H-1,3-benzodioxol-5-yl)methylidene]-4,5-dihydro-1H-imidazol-5-one] | < 10% | < 10% | > 50% |
| CN1C(=O)/C(=C/c2ccc3c(c2)OCO3)N=C1N [TJU-B057, (4Z)-2-amino-4-[(2H-1,3-benzodioxol-5-yl)methylidene]-1-methyl-4,5-dihydro-1H-imidazol-5-one] | 10 to 50% | < 10% | < 10% |
| O=C1NC(Nc2ccccn2)=N/C1=C\c1ccc2c(c1)OCO2 [TJU-B097, (4Z)-4-[(2H-1,3-benzodioxol-5-yl)methylidene]-2-[(pyridin-2-yl)amino]-4,5-dihydro-1H-imidazol-5-one] | < 10% | < 10% | < 10% |
